Data as given in patent US20250134949A1, “PROMININ-1 PEPTIDE FOR TREATING LUNG INJURY” (Children's Medical Center Corporation, priority 2017, published 2025).
Values belong to the molecule of their own block, whether it stands above or below them. No end group written: not given here.

Key:
[1] = Observation of ill effects during inhalation studies; type: in vivo, mouse; details: 24-hour experimental period, delivered directly into the lungs; data not shown
From the text: These and similar findings led many to believe that over-expression of VEGF in the lung could be curative in emphysema (54), however, enthusiasm for this type of therapy is tempered by clinical trials using systemic VEGF therapy (41) that were complicated by systemic and pulmonary toxicities including increased vascular permeability leading to hypotension (55) and tissue and lung edema (56, 57). […] The results outlined herein raise the possibility that a strategy to use PR1P to upregulate endogenous VEGF signaling in vivo may avoid toxicity seen with alternative and more conventional forms of VEGF therapy. […] PR1P could be used to avoid complications associated with constitutive VEGF over-expression or systemic VEGF treatment by stabilizing and potentiating the signaling of local endogenous VEGF. It will be important to clearly delineate the fate and pharmacokinetics of PR1P in evaluating its toxicity potential. Because of its small size, PR1P could also be more easily packaged as cargo inside nanometer or micron sized storage vehicles for tissue or cell targeted therapy.
8 week old female C3H/HENCrl (Charles River Laboratories, Cambridge, MA) mice (22±2 g) were placed in a whole-animal nebulization chamber (14×5×8 cm) and allowed to spontaneously inhale (20 min) nebulized LPS (Salmonela enterica, Sigma-Aldrich, St. Louis, MO), PR1P, scrambled peptide (SP), or VEGF. […]

[2] = system: AKT; test: PR1P induced AKT phosphorylation in Beas-2B cells with or without SU5416 (FACS); type: cell-based, human; details: then PR1P (125 μM) 20 min
Description: (§1) It was previously shown in part that PR1P binds VEGF, increases VEGF binding to VEGF receptors, and induces downstream VEGF signaling including the phosphorylation of VEGF receptor 2 and AKT. To determine whether PR1P mediation of VEGF signaling requires VEGFR2 activation, lung epithelial cells (Beas-2B) were treated with the specific VEGFR2 inhibitor SU5416 ([…]) or with vehicle alone as control for 24 hours and then exposed PR1P (125 μM) or vehicle for 20 min. Cells were then harvested and levels of phosphorylated VEGFR2 and AKT were assessed using FACS. […] These findings strongly support the notion that PR1P upregulation of VEGF signaling requires VEGFR-2 activation.
(§2) Serum-starved monolayers of Beas-2B cells were incubated in the presence or absence of SU5416 (20 μM) for 24 h on 10 cm tissue culture plates. After single washing with PBS, the cells were treated with 3 ml of starvation media in the presence of PR1P (125 […]) or vehicle as control for 20 minutes at 37° C. At the conclusion of the experiments, cells were prepared for FACS analysis using standard procedures. Cells were analyzed for levels of phosphorylated VEGFR2 and AKT using anti pAKT and pVEGFR2 antibodies (Cell signaling, Danvers MA).

[3] = system: VEGFR2; test: PR1P induced VEGFR2 phosphorylation in Beas-2B cells with or without SU5416 (FACS); type: cell-based, human; details: then PR1P (125 μM) 20 min
Description: as §1, §2

[4] = system: VEGFR-2; test: Lung cell VEGFR-2 phosphorylation after inhalation of nebulized peptide (FACS); type: in vivo, mouse; details: live mice, nebulized (20 min), lung cells harvested 30 minutes after end of inhalation; compared to SP
From the text: VEGF mediates cell survival and apoptosis pathways via binding to and activation of VEGFR-2 and signaling through the PI3K/AKT pathway (13). […] To evaluate the effect of PR1P on VEGF signaling in the lung, both FACS and Western blotting were used to measure the levels of phosphorylated VEGFR-2 and AKT in the human lung respiratory epithelial cell line BEAS-2B in response to treatment with PR1P, scrambled peptide (SP), or VEGF. […] To determine whether PR1P also effectively modulated VEGF signaling in the lungs of animals (i.e. whether PR1P was bioactive in-vivo) live mice were treated with nebulized VEGF, SP or PR1P (20 min) and performed FACS analysis on lung cells harvested from treated animals 30 minutes after the end of inhalation. […]
Lungs were harvested from treated animals, cut into small pieces using surgical scissors and suspended and gently stirred in 3 ml serum free BEBM containing Liberase (2 mg ml, Sigma-Aldrich, St. Louis, MO). […] Cells were subsequently washed with FACS media and analyzed by a flow cytometer (BD Biosciences, San Jose, CA, USA) running FlowJo 7.2.2, software (Tomy Digital Biology. Tokyo, Japan).

[5] = in vivo; cited from earlier work

- ill effects from therapy [1]: ill effects were not observed
Molecule: DRVQRQTTTVVA [PR1P, DRVQRQTTTVVA]

Molecule: Cc1cc(C)c(/C=C2\C(=O)Nc3ccccc32)[nH]1 [SU5416]
- effect of PR1P on the phosphorylation level of AKT in presence of inhibitor [2]: significantly reduced
- effect of PR1P on the phosphorylation level of VEGFR-2 in presence of inhibitor [3]: significantly reduced

Molecule: VEGF
- lung cell VEGFR-2 phosphorylation [4]: increased pVEGFR2

Molecule: elastase: porcine pancreatic elastase (PPE) used intra-tracheally to induce emphysema phenotype
- half-life of exogenous elastase administered into the animal lungs [5]: approximately 50 minutes
